This note sets out measurements from patent publication US11612604B2, “Methods of treating cancer with PLK4 inhibitors” (LUDWIG INSTITUTE FOR CANCER RESEARCH LTD, priority 2017, dated 2023).

Structures are written as SMILES.

For this assay, the target named is T1, PLK4 (Homo sapiens, UniProt O00444).
T1 sequence (O00444 1-970): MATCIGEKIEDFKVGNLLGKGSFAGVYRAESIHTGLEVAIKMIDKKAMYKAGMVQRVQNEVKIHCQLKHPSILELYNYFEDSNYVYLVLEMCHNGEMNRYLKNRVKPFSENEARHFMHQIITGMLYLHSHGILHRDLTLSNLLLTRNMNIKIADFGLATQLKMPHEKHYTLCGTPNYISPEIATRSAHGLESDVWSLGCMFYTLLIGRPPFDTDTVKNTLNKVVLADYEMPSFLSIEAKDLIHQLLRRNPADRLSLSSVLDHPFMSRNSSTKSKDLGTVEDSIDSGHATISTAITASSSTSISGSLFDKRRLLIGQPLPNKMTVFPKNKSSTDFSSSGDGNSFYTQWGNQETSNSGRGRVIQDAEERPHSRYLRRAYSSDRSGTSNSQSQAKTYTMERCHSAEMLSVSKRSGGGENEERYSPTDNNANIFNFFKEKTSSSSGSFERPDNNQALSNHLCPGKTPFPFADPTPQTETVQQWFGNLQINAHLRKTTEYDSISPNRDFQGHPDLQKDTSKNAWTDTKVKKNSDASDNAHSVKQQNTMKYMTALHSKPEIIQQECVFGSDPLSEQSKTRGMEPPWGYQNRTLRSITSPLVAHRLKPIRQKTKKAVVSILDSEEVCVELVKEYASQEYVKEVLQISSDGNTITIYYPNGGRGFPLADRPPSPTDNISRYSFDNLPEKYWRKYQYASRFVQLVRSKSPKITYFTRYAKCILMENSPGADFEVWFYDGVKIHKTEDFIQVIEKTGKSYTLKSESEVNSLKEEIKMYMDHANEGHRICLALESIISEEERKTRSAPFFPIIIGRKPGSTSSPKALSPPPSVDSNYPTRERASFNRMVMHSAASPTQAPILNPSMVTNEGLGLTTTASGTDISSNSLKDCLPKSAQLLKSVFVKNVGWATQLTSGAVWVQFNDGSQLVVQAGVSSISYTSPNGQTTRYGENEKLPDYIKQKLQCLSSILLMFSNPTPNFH
In words: Activity (IC50) of the Table 1 compounds as PLK4 inhibitors. In kind it is biochemical. Conditions: Table 1, IC50 class.

With `Cc1cc(Nc2cc(C)[nH]n2)nc(Sc2ccc(NC(=O)C3CC3)cc2)n1`, the IC50 is < 100 nM.

Consider `COc1c(Nc2cc(C)[nH]n2)nc(Sc2ccc(NC(=O)C3CC3)cc2)nc1N1CCNCC1`, for which the 50% inhibitory concentration (IC50) is < 100 nM.

For the molecule `COCCNc1nc(Sc2ccc(NC(=O)C3CC3)cc2)nc(Nc2cc(C)[nH]n2)c1OC`, the IC50 was < 100 nM.

Consider `COc1c(Nc2cc(C)[nH]n2)nc(Sc2ccc(S(=O)(=O)Cc3cccc(NC(C)=O)c3)cc2)nc1N1CCN(CCN(C)C)CC1`, for which the IC50 is < 100 nM.

`COc1c(Nc2cc(C)[nH]n2)nc(Sc2ccc(S(=O)(=O)Cc3cccc(N(C)C)c3)cc2)nc1N1CCN(CCN(C)C)CC1`: the IC50 is < 100 nM.

With `COC(=O)c1ccccc1CS(=O)(=O)c1ccc(Sc2nc(Nc3cc(C)[nH]n3)c(OC)c(N3CCN(CCN(C)C)CC3)n2)cc1`, the IC50 is < 100 nM.

Regarding `COc1c(Nc2cc(C)[nH]n2)nc(Sc2ccc(S(=O)(=O)Cc3ccccc3C(=O)N(C)C)cc2)nc1N1CCN(CCN(C)C)CC1`, the IC50 was < 100 nM.

For `COc1c(Nc2cc(C)[nH]n2)nc(Sc2ccc(S(=O)(=O)Cc3cccc(C(=O)O)c3)cc2)nc1N1CCN(CCN(C)C)CC1`, the half-maximal inhibitory concentration (IC50) was < 100 nM.

`COc1c(Nc2cc(C)[nH]n2)nc(Sc2ccc(S(=O)(=O)Cc3ccccc3C(=O)O)cc2)nc1N1CCN(CCN(C)C)CC1`: the IC50 is < 100 nM.

Take `COc1ccc([N+](=O)[O-])cc1CS(=O)(=O)c1ccc(Sc2nc(Nc3cc(C)[nH]n3)c(OC)c(N3CCN(CCN(C)C)CC3)n2)cc1`: the half-inhibitory concentration (IC50) is < 100 nM.

With `COc1c(CS(=O)(=O)c2ccc(Sc3nc(Nc4cc(C)[nH]n4)c(OC)c(N4CCN(CCN(C)C)CC4)n3)cc2)cccc1[N+](=O)[O-]`, the IC50 was < 100 nM.

Take `COc1c(Nc2cc(C)[nH]n2)nc(Sc2ccc(S(=O)(=O)Cc3cc([N+](=O)[O-])ccc3F)cc2)nc1N1CCN(CCN(C)C)CC1`: the IC50 is < 100 nM.

For `COc1c(Nc2cc(C)[nH]n2)nc(Sc2ccc(S(=O)(=O)Cc3cccc([N+](=O)[O-])c3)cc2F)nc1N1CCN(CCN(C)C)CC1`, the IC50 is < 100 nM.

As to `COc1c(Nc2cc(C)[nH]n2)nc(Sc2ccc(S(=O)(=O)Cc3cccc([N+](=O)[O-])c3F)cc2)nc1N1CCCCC1`, the IC50 was < 100 nM.

As to `COc1c(Nc2cc(C)[nH]n2)nc(Sc2ccc(S(=O)(=O)Cc3cc(F)cc([N+](=O)[O-])c3)cc2)nc1N1CCN(CCN(C)C)CC1`, the half-maximal inhibitory concentration (IC50) was < 100 nM.

Take `COc1c(Nc2cc(C)[nH]n2)nc(Sc2ccc(S(=O)(=O)Cc3cccc([N+](=O)[O-])c3Cl)cc2)nc1N1CCN(CCN(C)C)CC1`: the IC50 is < 100 nM.

For `COc1c(Nc2cc(C)[nH]n2)nc(Sc2ccc(S(=O)(=O)Cc3cccc([N+](=O)[O-])c3F)cc2F)nc1N1CCN(CCN(C)C)CC1`, the IC50 is < 100 nM.

For the molecule `COc1c(Nc2cc(C)[nH]n2)nc(Sc2ccc(S(=O)(=O)Cc3cccc([N+](=O)[O-])c3)cc2F)nc1N1CCOCC1`, the IC50 was < 100 nM.

Turning to `COc1c(Nc2cc(C)[nH]n2)nc(Sc2ccc(S(=O)(=O)Cc3cccc([N+](=O)[O-])c3)cc2F)nc1N1CCOC[C@@H]1C`, the IC50 was < 100 nM.

For `COc1c(Nc2cc(C)[nH]n2)nc(Sc2ccc(S(=O)(=O)Cc3cccc([N+](=O)[O-])c3C#N)cc2)nc1N1CCN(CCN(C)C)CC1`, the concentration for half-maximal inhibition (IC50) was < 100 nM.

Take `COc1c(Nc2cc(C)[nH]n2)nc(Sc2ccc(S(=O)(=O)Cc3cccc([N+](=O)[O-])c3F)cc2)nc1N1CCC(O)CC1`: the half-maximal inhibitory concentration (IC50) was < 100 nM.

Consider `COc1c(Nc2cc(C)[nH]n2)nc(Sc2ccc(S(=O)(=O)Cc3cccc([N+](=O)[O-])c3O)cc2)nc1N1CCN(CCN(C)C)CC1`, for which the IC50 was < 100 nM.

Take `COc1c(Nc2cc(C)[nH]n2)nc(Sc2ccc(S(=O)(=O)Cc3cccc([N+](=O)[O-])c3)cc2)nc1N1C2CCC1COC2`: the IC50 was < 100 nM.

Consider `COc1c(Nc2cc(C)[nH]n2)nc(Sc2ccc(S(C)(=O)=O)cc2F)nc1N1CCC(CCN(C)C)CC1`, for which the IC50 is < 100 nM.

As to `COc1c(Nc2cc(C)[nH]n2)nc(Sc2ccc(S(C)(=O)=O)cc2F)nc1N1CCN(CCN(C)C)CC1`, the concentration for half-maximal inhibition (IC50) was < 100 nM.

Consider `COc1c(Nc2cc(C)[nH]n2)nc(Sc2ccc(S(C)(=O)=O)cc2Cl)nc1N1CCN(CCN(C)C)CC1`, for which the IC50 is < 100 nM.

With `COc1c(Nc2cc(C)[nH]n2)nc(Sc2ccc(S(C)(=O)=O)cc2Cl)nc1N1CCC(CCN(C)C)CC1`, the IC50 was < 100 nM.

Consider `CCS(=O)(=O)c1ccc(Sc2nc(Nc3cc(C)[nH]n3)c(OC)c(N3CCOCC3)n2)c(Cl)c1`, for which the concentration for half-maximal inhibition (IC50) is < 100 nM.

As for `COc1c(Nc2cc(C)[nH]n2)nc(Sc2ccc(S(=O)(=O)Cc3cccc([N+](=O)[O-])c3F)cc2F)nc1N1CCOC[C@H]1C`, the IC50 was < 100 nM.

Consider `COc1c(Cc2cc(C)[nH]n2)nc(Sc2ccc(S(=O)(=O)Cc3cccc([N+](=O)[O-])c3)cc2F)nc1N1CCOC[C@H]1C`, for which the IC50 is < 100 nM.

In the case of `CCS(=O)(=O)c1ccc(Sc2nc(Nc3cc(C)[nH]n3)c(OC)c(N3CCN(CCN(C)C)CC3)n2)c(Cl)c1`, the concentration for half-maximal inhibition (IC50) was < 100 nM.

`CCS(=O)(=O)c1ccc(Sc2nc(Nc3cc(C)[nH]n3)c(OC)c(N3CCN(C)CC3)n2)c(Cl)c1`: the half-inhibitory concentration (IC50) was < 100 nM.

Consider `CCS(=O)(=O)c1ccc(Sc2nc(Nc3cc(C)[nH]n3)c(OC)c(N3CCN(CCN(C)C)CC3)n2)c(F)c1`, for which the IC50 was < 100 nM.

As for `CCS(=O)(=O)c1ccc(Sc2nc(Nc3cc(C)[nH]n3)c(OC)c(N3CCC(CCN(C)C)CC3)n2)c(F)c1`, the 50% inhibitory concentration (IC50) was < 100 nM.

Consider `CCS(=O)(=O)c1ccc(Sc2nc(Cc3cc(C)[nH]n3)c(OC)c(N3CCOC[C@@H]3C)n2)c(Cl)c1`, for which the IC50 is < 100 nM.

In the case of `COc1c(Cc2cc(C)[nH]n2)nc(Sc2ccc(S(C)(=O)=O)cc2F)nc1N1CCOC[C@@H]1C`, the IC50 was < 100 nM.

With `COc1c(Nc2cc(C)[nH]n2)nc(Sc2ccc(S(=O)(=O)Cc3cccc(F)c3F)cc2F)nc1N1CCCCC1`, the IC50 is < 100 nM.

As to `COc1c(Nc2cc(C)[nH]n2)nc(Sc2ccc(S(=O)(=O)Cc3cccc(F)c3F)cc2F)nc1N1CCOCC1`, the half-maximal inhibitory concentration (IC50) was < 100 nM.

Consider `COc1c(Nc2cc(C)[nH]n2)nc(Sc2ccc(S(=O)(=O)Cc3cccc(F)c3F)cc2F)nc1N1CCN(CCN(C)C)CC1`, for which the concentration for half-maximal inhibition (IC50) is < 100 nM.

Consider `COc1c(Cc2cc(C)[nH]n2)nc(Sc2ccc(S(=O)(=O)Cc3cccc(F)c3F)cc2F)nc1N1CCOC[C@@H]1C`, for which the IC50 is < 100 nM.

For `COc1c(Nc2cc(C)[nH]n2)nc(Sc2ccc(S(=O)(=O)Cc3c(F)ccc(F)c3F)cc2F)nc1N1CCN(CCN(C)C)CC1`, the 50% inhibitory concentration (IC50) was < 100 nM.

With `COc1c(Nc2cc(C)[nH]n2)nc(Sc2ccc(S(=O)(=O)Cc3cccc([N+](=O)[O-])c3F)cc2F)nc1N1CCOC[C@@H]1C`, the IC50 was < 100 nM.

With `COc1c(Nc2cc(C)[nH]n2)nc(Sc2ccc(S(=O)(=O)Cc3cccc([N+](=O)[O-])c3)cc2)nc1N1CCOC[C@@H]1CO`, the half-maximal inhibitory concentration (IC50) is < 100 nM.

`COc1c(Nc2cc(C)[nH]n2)nc(Sc2ccc(S(=O)(=O)Cc3cccc(Cl)c3F)cc2F)nc1N1CCOCC1`: the IC50 was < 100 nM.

Take `COc1c(Nc2cc(C)[nH]n2)nc(Sc2ccc(S(=O)(=O)Cc3cccc(Br)c3F)cc2F)nc1N1CCOCC1`: the IC50 is < 100 nM.

Regarding `COc1c(Nc2cc(C)[nH]n2)nc(Sc2ccc(S(=O)(=O)Cc3c(F)c(F)cc(F)c3F)cc2F)nc1N1CCOCC1`, the IC50 was < 100 nM.

For `COc1c(Nc2cc(C)[nH]n2)nc(Sc2ccc(S(=O)(=O)Cc3cccc(C(F)(F)F)c3F)cc2F)nc1N1CCOCC1`, the 50% inhibitory concentration (IC50) was < 100 nM.

As to `COc1c(Nc2cc(C)[nH]n2)nc(Sc2ccc(S(=O)(=O)Cc3cccc(C#N)c3F)cc2F)nc1N1CCOCC1`, the IC50 was < 100 nM.

For `COc1c(Nc2cc(C)[nH]n2)nc(Sc2ccc(S(=O)(=O)Cc3cccc(N)c3F)cc2F)nc1N1CCOCC1`, the IC50 was < 100 nM.

Take `COc1c(Nc2cc(C)[nH]n2)nc(Sc2ccc(S(=O)(=O)C(F)c3cccc([N+](=O)[O-])c3F)cc2F)nc1N1CCOCC1` (stereo not drawn): the IC50 was < 100 nM.

With `COC(=O)c1cccc(CS(=O)(=O)c2ccc(Sc3nc(Nc4cc(C)[nH]n4)c(OC)c(N4CCOCC4)n3)c(F)c2)c1F`, the 50% inhibitory concentration (IC50) was < 100 nM.

Turning to `COc1c(Nc2cc(C)[nH]n2)nc(Sc2ccc(S(=O)(=O)Cc3cccc(C(=O)N(C)C)c3F)cc2F)nc1N1CCOCC1`, the IC50 was < 100 nM.

As for `COc1c(Nc2cc(C)[nH]n2)nc(Sc2ccc(S(=O)(=O)Cc3cccc(C(N)=O)c3F)cc2F)nc1N1CCOCC1`, the IC50 was < 100 nM.

As to `COc1c(Nc2cc(C)[nH]n2)nc(Sc2ccc(S(=O)(=O)Cc3cccc([N+](=O)[O-])c3F)cc2F)nc1N1CCOC[C@@H]1CO`, the half-maximal inhibitory concentration (IC50) is < 100 nM.

Turning to `COc1c(Nc2cc(C)[nH]n2)nc(Sc2ccc(S(=O)(=O)Cc3cccc(Br)c3F)cc2F)nc1N1CCCCC1`, the IC50 is < 100 nM.

With `COc1c(Nc2cc(C)[nH]n2)nc(Sc2ccc(S(=O)(=O)Cc3cccc(I)c3F)cc2F)nc1N1CCOCC1`, the 50% inhibitory concentration (IC50) was < 100 nM.

Turning to `COc1c(Nc2cc(C)[nH]n2)nc(Sc2ccc(S(=O)(=O)c3cccc([N+](=O)[O-])c3)cc2F)nc1N1CCOCC1`, the 50% inhibitory concentration (IC50) was < 100 nM.
